Test results: US20070074297A1, “TAAR1 knock out animal” (priority 2005, published 2007)
Several values for one entry are separate records, joined by “and”; a condition that tells them apart may be missing. Identical values can stand only once. Entries after “also recorded” stand apart in the source; their conditions may differ.

What was measured:
[1] = tested on: TAAR1^+/+ and TAAR1^LacZ/LacZ mice; test: Locomotor activity after d-amphetamine challenge (Digiscan activity monitor); type: in vivo, mouse; conditions: 2.5 mg/kg i.p.
Procedure: Locomotor activity. A computerized Digiscan 16 Animal Activity Monitoring System (Omnitech Electronics, Colombus, Ohio) was used to quantitate spontaneous locomotor activity. Data were obtained simultaneously from eight Digiscan activity chambers placed in a soundproof room with a 12 hr light/dark cycle. All tests were performed during the light phase (6 a.m. to 6 p.m.). Each activity monitor consisted of a Plexiglas box (20×20×30.5 cm) with sawdust bedding on the floor surrounded by invisible horizontal and vertical infrared sensor beams. The cages were connected to a Digiscan Analyzer linked to a PC that constantly collected the beam status information. With this system, different behavioral parameters could be measured, such as horizontal and vertical activity, total distance travelled (in cm), and stereotypies. The mice were tested via a pseudo-Latin squares design […] with at least a 10-day interval between two consecutive test sessions. […] Locomotor activity was recorded for 90 min starting immediately after the mice were placed in the cages.
Statistics. Behavioral observations were recorded as mean values SE and analyzed with an unpaired t test. Locomotor activity data (total distance) were analyzed with a two-factor (Genotype and Dose) ANOVA with repeated measures. […]

[2] = tested on: TAAR1^+/+ and TAAR1^LacZ/LacZ mice; test: In vivo microdialysis of extracellular biogenic amines in the striatum after d-amphetamine; parameters: species or system mouse
Procedure: Four months old male mice were used for these experiments. The procedures used for the experiments described in this report received prior approval from the City of Basel Cantonal Animal Protection Committee based on adherence to federal and local regulations on animal maintenance and testing.
Forty-five minutes before anesthesia mice received subcutaneously 0.075 mg/kg of buprenorfine. Mice were then anesthetized with isoflurane and placed in a stereotaxic device equipped with dual manipulators arms and an anesthetic mask. Anesthesia was maintained with isoflurane 0.8-1.2% (v/v; support gas oxygen/air, 2:1). The head was shaved and the skin was cut along the midline to expose the skull. A small bore hole was made in the skull to allow the stereotaxical insertion of the microdialysis probe (vertical probe carrying a 2 mm polyacrilonitrile dialysis membrane; Brains On-line, Groningen, The Netherlands) in the striatum (coordinates: A 0.9 mm, L-1.8 mm, V-4.6 mm). The probe was cemented into place using binary dental cement. Once the cement was firm, the wound was closed with silk thread for suture (Silkam) the animal was removed from the stereotaxic instrument and returned to its cage. At the end of the surgery and 24 hrs later mice were treated with Meloxicam 1 mg/kg sc. The body weight of the animals was measured before the surgery and in the following days to monitor the recovery of the animal from surgery.
All microdialysis experiments were carried out 3-4 days after surgery in awake, freely moving mice. The day of the experiment, the inlet of the implanted dialysis probe was connected to a micro-perfusion pump (CMA/Microdialysis, Sweden) and the outlet was connected to a fraction collector. The microdialysis probe was then perfused with Ringer solution (NaCl 147 mM, KCl 3 mM, CaCl2 1.2 mM, MgC12 1.2 mM) at a constant flow rate of 1.5 μL/min and […] Four samples of dialysates were collected before pharmacological treatment to determine the baseline levels of biogenic amines and their metabolites. Mice were then treated intraperitoneally with 2.5 mg/kg of amphetamine and dialysate samples collected for further 2.5 hrs. Dialysate samples were stored frozen at −80° C. until analysis.
Frozen dialysate samples were shipped in dry ice to Brains On-Line for assay of monoamines and their metabolites. The concentrations of dopamine, DOPAC, serotonin, 5-HIAA and noradrenaline were measured by use an HPLC equipped with an electrochemical detector according to the procedure of van der Vegt et al. (2003).
Concentrations of norepinephrine, dopamine, and serotonin were determined within the same samples by HPLC separation and electrochemical detection. Samples were split into two aliquots; one used for simultaneous analysis of norepinephrine and dopamine, the other for analysis of serotonin.
Aliquots (20 μL) were injected onto the HPLC column by a refrigerated microsampler system, consisting of a syringe pump (Gilson, model 402), a multi-column injector (Gilson, model 233 XL), and a temperature regulator (Gilson, model 832). Chromatographic separation was performed on a reverse-phase 150×2.1 mm (3 μm) C18 Thermo BDS Hypersil column (Keystone Scientific). The mobile phase (isocratic) consisted of a sodium acetate buffer (4.1 g/L Na acetate) with 2.5% v/v methanol, 150 mg/L Titriplex (EDTA), 150 mg/L 1-octanesulfonic acid, and 150 mg/L tetramethylammonium chloride (pH=4.1 adjusted with glacial acetic acid). Mobile phase was run through the system at a flow rate of 0.35 mL/min by an HPLC pump (Shimadzu, model LC-10AD vp).
Norepinephrine and dopamine were detected electrochemically using a potentiostate (Antec Leyden, model Intro) fitted with a glassy carbon electrode set at +500 mV vs. Ag/AgCl (Antec Leyden). Data were analyzed by Chromatography Data System (Shimadzu, class-vp) software. Concentrations of monoamines were quantitated by external standard method. […]

[3] = tested on: dopaminergic neurons in the VTA; test: Slice electrophysiology, spontaneous firing rate in the ventral tegmental area (current clamp); type: cell-based, mouse; conditions: for spike frequency F of dopaminergic neurons: bath application 10 μM
Procedure: Horozontal slices (250 μm thick, VT1000 vibratome, Leica) of the midbrain were prepared from TAAR1 knock-out and littermate wild-type mice 25-60 days of age. Slices were cooled in artificial cerebrospinal fluid (ACSF) containing in mM: 119 NaCl, 2.5 KCl, 1.3 MgCl2, 2.5 CaCl2, 1.0 NaH2PO4, 26.2 NaHCO3 and 11 glucose. Slices were continuously bubbled with 95% O2 and 5% CO2 and transferred after 1 h to the recording chamber superfused (1.5 ml/min) with ACSF at 32-34° C. The VTA was identified as the region medial to the medial terminal nucleus of the accessory optical tract. Visualized whole-cell current-clamp recording techniques were used to measure the spontaneous firing rate and holding currents of neurons. […] Dopaminergic neurons were identified by a large Ih current. The internal solution contained in mM: 140 potassium gluconate, 4 NaCl, 2 MgCl2, 1.1 EGTA, 5 HEPES, 2 Na2ATP, 5 sodium creatine phosphate and 0.6 Na2GTP; the pH was adjusted to 7.3 with KOH. Data were obtained with an Axopatch 200B (Axon Instruments, Union City, Calif., USA), filtered at 2 kHz and digitized at 10 kHz, acquired and analyzed with pClamp9 (Axon Instruments, Union City, Calif., USA). Values are expressed as mean±sem. For statistical comparisons we used the Kolmogorov-Smirnov test. The level of significance was set at P=0.05.

[4] = TAAR1^LacZ/LacZ mice, 2.5 mg/kg i.p.

Row | Structure (SMILES) | locomotor activity (total distance moved) after d-amphetamine, compared to wild type littermates ([1]; TAAR1^LacZ/LacZ mice, n=12, 2.5 mg/kg) | locomotor activity (total distance moved) after d-amphetamine injection ([1]; wild type (TAAR1^+/+) mice) | amphetamine-triggered increase in extracellular dopamine, TAAR1^LacZ/LacZ relative to TAAR1^+/+ ([2]; 2.5 mg/kg i.p., n=7-8) | amphetamine-triggered increase in noradrenaline (norepinephrine), TAAR1^LacZ/LacZ relative to wild type ([2]; 2.5 mg/kg i.p., n=7-8, 2.5 mg/kg) | time until DOPAC levels returned to basal levels ([2]; TAAR1^LacZ/LacZ mice) | increase of extracellular dopamine level over basal [2, 4] | increase of extracellular norepinephrine level over basal [2, 4] | increase of extracellular serotonin level [2, 4] | DOPAC level versus wild-type control ([2]; TAAR1^LacZ/LacZ mice, 45 min after administration) | change of extracellular DOPAC level in response to amphetamine ([2]; both TAAR1^LacZ/LacZ and TAAR1^+/+ mice, 2.5 mg/kg i.p.) | change in levels of the 5-HT metabolite 5-HIAA ([2]; both genotypes, 2.5 mg/kg i.p.) | change of extracellular serotonin level ([2]; wild type (TAAR1^+/+) mice, 2.5 mg/kg i.p., 2.5 mg/kg) | spike frequency F of dopaminergic neurons ([3]; TAAR1^+/+ mice, n=19, control 2.1±0.3 Hz, p<0.0001) | spike frequency F of dopaminergic neurons ([3]; TAAR1^LacZ/LacZ mice, n=15, control 16.73±1.15 Hz, p>0.05) | effect on firing rate (spike frequency) of dopaminergic neurons, in words ([3]; wild type (TAAR1^+/+) mice)
1 | C[C@H](N)Cc1ccccc1 [d-amphetamine] | moved significantly more than wild type littermates; also recorded: significantly higher | decreased | 2.3 fold | 2.3 fold and 2.4 fold | 135 min | 11 fold | 4.9 fold | 2.5 fold | significantly decreased | only a marginal decrease | No significant changes | remained unchanged; also recorded: not in their TAAR1^+/+ littermates |  |  | 
2 | NCCc1ccc(O)cc1 [p-tyramine] |  |  |  |  |  |  |  |  |  |  |  |  | 0.63±0.04 Hz | 16.57±1.35 Hz | significant decrease; also recorded: decreases the firing rate
